In patent US6630472B1, “Compounds, pharmaceutical compositions, and methods for stimulating neuronal growth and elongation” (priority 1998, dated 2003):

Molecular target: FKBP12 (Homo sapiens, UniProt P62942)
Experiment: rotamase inhibition assay (N-succinyl-Ala-Ala-Pro-Phe-p-nitroanilide, chymotrypsin-coupled)
Type: biochemical
Settings: @ 2.5 μM
Method: In the rotamase inhibition assay, isomerization of an artificial substrate N-succinyl-Ala-Ala-Pro-Phe-p-nitroanilide is followed spectrophotometrically. The assay includes the cis form of the substrate, FKBP12, the compound being tested, and chymotrypsin. Chymotrypsin is able to cleave p-nitroaniline from the trans form of the substrate, but not from the cis form. Release of p-nitroaniline is measured spectrophotometrically. Using this assay, various amounts of the FKBP rotamase-inhibiting compounds of formula (I-a) or (I-b) were added to cis-N-succinyl-alanine-alanine-proline-phenylalanine-para-nitroaniline (Bachem, 3132 Kashiwa Street, Torrance, Calif. 90505) in the presence of FKBP12 and chymotrypsin. Spectrophotometric measurements of p-nitroaniline concentrations allowed estimation of the apparent Ki values, which are provided in Table 1 below.

FKBP12, sequence (P62942 whole entry, species assumed): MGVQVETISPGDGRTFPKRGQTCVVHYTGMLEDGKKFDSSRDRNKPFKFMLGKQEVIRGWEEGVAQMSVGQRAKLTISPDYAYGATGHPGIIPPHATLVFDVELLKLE

SMILES	inhibition at 2.5 µM
CCCC(CCC)C(=O)OC[C@H](CN1CC2CCCC(C1=O)N2C(=O)C(=O)C(C)(C)CC)OCc1ccccc1 (stereo partly shown) [Compound 56]	40%

Same assay, conditions: Rotamase Ki(app)

SMILES	Ki
COc1cc(OC)cc(N2C=C3C4CCCC(C(=O)N3CC2=O)N4C(=O)C(=O)c2cc(OC)c(OC)c(OC)c2)c1 (stereo not shown) [Compound 142]	54 nM

Same assay, conditions: apparent Ki; NI = no inhibition at the concentrations tested; read-out: Rotamase Ki(app)

SMILES	Ki
COc1cc(C(=O)C(=O)N2C3CCCC2C(=O)N(CCCCc2ccccc2)C3=O)cc(OC)c1OC [Compound 35]	73 nM
CC(=O)OCC1(C(=O)C(=O)N2C3CCCC2C(=O)N(CCCCc2ccccc2)C3)CCCCC1 (stereo not shown) [Compound 86]	1300 nM
CC(C)[C@@H]1CC[C@@H](C)[C@](C)(C(=O)C(=O)N2C3CCCC2C(=O)N(CCOCc2ccccc2)C3)C1 (stereo partly shown) [Compound 54]	6000 nM
C=CCC(CC=C)C(=O)OC[C@@H](CN1CC2CCCC(C1=O)N2C(=O)C(=O)C(C)(C)CC)OCc1ccccc1 (stereo partly shown) [Compound 75]	790 nM
COc1ccc(CN2C(=O)C3CCCC(C2C#N)N3C(=O)C(=O)c2cc(OC)c(OC)c(OC)c2)cc1 (stereo not shown) [Compound 80]	1800 nM
COC[C@@H]1CC[C@@H](C)[C@](O)(C(=O)C(=O)N2C3CCCC2C2=CN(C4CCCC4)C(=O)CN2C3=O)C1 (stereo partly shown) [Compound 140]	10000 nM
COc1cc(C(=O)C(=O)N2C3CCCC2C(=O)N(C(COCc2ccccc2)COC(C)=O)C3)cc(OC)c1OC (stereo not shown) [Compound 53]	5000 nM
CC(=O)OCC(C)(C)C(=O)C(=O)N1C2CCCC1C(=O)N(CCCCc1ccccc1)C2 (stereo not shown) [Compound 60]	3000 nM
CCCC(CCC)C(=O)OC[C@@H](CN1CC2CCCC(C1=O)N2C(=O)C(=O)c1cc(OC)c(OC)c(OC)c1)OCc1ccccc1 (stereo partly shown) [Compound 46]	448 nM
CCC(C)(C)C(=O)C(=O)N1C2CCCC1C1c3cccc(OC)c3CCN1C2=O (stereo not shown) [Compound 87]	5000 nM
CCC(C)(C)C(=O)C(=O)N1C2CCCC1C(=O)N([C@H]1CCC[C@@H]1OCc1ccccc1)C2 (stereo partly shown) [Compound 78]	4100 nM
C=CCC(CC=C)C(=O)OC[C@@H](CN1CC2CCCC(C1=O)N2C(=O)C(=O)C1(COC(=O)COC)CCCC1)OCc1ccccc1 (stereo partly shown) [Compound 108]	61 nM
COc1cc(OC)cc(N2C=C3C4CCCC(C(=O)N3CC2=O)N4C(=O)C(=O)C(C)(C)c2ccccc2)c1 (stereo not shown) [Compound 155]	1200 nM
COCOC1(C(=O)C(=O)N2C3CCC[C@@H]2[C@@H]2Cc4cc(OC(F)(F)F)ccc4CN2C3=O)CCCC1 [Compound 141]	4000 nM
COCOCC1(C(=O)C(=O)N2C3CCCC2C(=O)N(CCCCc2ccccc2)C3)CCCC1 (stereo not shown) [Compound 85]	324 nM
C=CCC(CC=C)C(=O)OC[C@H](CN1CC2CCCC(C1=O)N2C(=O)C(=O)C1(COC(=O)COC)CCCC1)OCc1ccccc1 (stereo partly shown) [Compound 110]	86 nM
COc1cc(C(=O)C(=O)N2C3CCCC2C(OC)N(CCCCc2ccccc2)C3=O)cc(OC)c1OC (stereo not shown) [Compound 37]	222 nM
COc1ccc2c(c1)C1C3CCCC(C(=O)N1CC2)N3C(=O)C(=O)C1(COC(C)=O)CCCC1 (stereo not shown) [Compound 82]	3000 nM
O=C1C2CCCC(CN1CCOCc1ccccc1)N2C(=O)C(=O)C12CC3CC(CC(C3)C1)C2 (stereo not shown) [Compound 40]	690 nM
COCCOC1(C(=O)C(=O)N2C3CCCC2C(=O)N(CCCCc2ccccc2)C3)CCCC1 (stereo not shown) [Compound 98]	772 nM
COc1cc(C(=O)C(=O)N2C3CCCC2C(=O)N(CCOCc2ccccc2)C3)cc(OC)c1OC (stereo not shown) [Compound 7]	160 nM
COc1cc(C(=O)C(=O)N2C3CCCC2C(=O)N([C@H]2CCC[C@@H]2OCc2ccccc2)C3)cc(OC)c1OC (stereo partly shown) [Compound 72]	240 nM

SMILES	Ki
CCC(CC)C(=O)C(=O)N1C2CCCC1C(=O)N(CCCCc1ccccc1)C2 (stereo not shown) [Compound 68]	2500 nM
COc1cc(C(=O)C(=O)N2C3CCCC2C(=O)N(C[C@@H](CO)OCc2ccccc2)C3)cc(OC)c1OC (stereo partly shown) [Compound 50]	560 nM
COc1cc(C(=O)C(=O)N2C3CCCC2C(=O)N(CCCCCc2ccccc2)C3=O)cc(OC)c1OC [Compound 38]	298 nM
COCC(=O)OC1(C(=O)C(=O)N2C3CCCC2C(=O)N(CCCCc2ccccc2)C3)CCCC1 (stereo not shown) [Compound 101]	1400 nM
C=CCC(CC=C)C(=O)OC[C@H](CN1CC2CCCC(C1=O)N2C(=O)C(=O)C(C)(C)CC)OCc1ccccc1 (stereo partly shown) [Compound 70]	890 nM
COCOC1(C(=O)C(=O)N2C3CCCC2C2=CN(C4CCCC4)C(=O)CN2C3=O)CCCC1 (stereo not shown) [Compound 135]	1400 nM
CCC(C)(C)C(=O)C(=O)N1C2CCCC1C(=O)N(CCCCc1ccccc1)C2=O [Compound 36]	445 nM
CC(C)C(=O)OC1(C(=O)C(=O)N2C3CCCC2C2=CN(C4CCCC4)C(=O)CN2C3=O)CCCC1 (stereo not shown) [Compound 150]	1500 nM
CCC(=O)OC1(C(=O)C(=O)N2C3CCCC2C2=CN(C4CCCC4)C(=O)CN2C3=O)CCCC1 (stereo not shown) [Compound 144]	1200 nM
C=CCC(CC=C)C(=O)OC[C@H](CN1CC2CCCC(C1=O)N2C(=O)C(=O)C1(COC(C)=O)CCCC1)OCc1ccccc1 (stereo partly shown) [Compound 111]	663 nM
COc1cc(C(=O)C(=O)N2C3CCCC2C2=CN(CC4CC4)C(=O)CN2C3=O)cc(OC)c1OC (stereo not shown) [Compound 122]	150 nM
COCOC1(C(=O)C(=O)N2C3CCCC2C(=O)N(CCCCc2ccccc2)C3)CCCC1 (stereo not shown) [Compound 112]	1000 nM
C=CCC(CC=C)C(=O)OC[C@H](CN1CC2CCCC(C1=O)N2C(=O)C(=O)c1cc(OC)c(OC)c(OC)c1)OCc1ccccc1 (stereo partly shown) [Compound 73]	63 nM
CCC(C)(C)C(=O)C(=O)N1C2CCCC1C1=CN(CC3CC3)C(=O)CN1C2=O (stereo not shown) [Compound 123]	1200 nM
CCC(C)(C)C(=O)C(=O)N1C2CCCC1C(=O)N(C[C@H](CO)OCc1ccccc1)C2 (stereo partly shown) [Compound 58]	3000 nM
CC(=O)OCC1(C(=O)C(=O)N2C3CCCC2C2=CN(CC4CC4)C(=O)CN2C3=O)CCCC1 (stereo not shown) [Compound 124]	380 nM
COCC(=O)OCC1(C(=O)C(=O)N2C3CCCC2C(=O)N(CCCCc2ccccc2)C3)CCCC1 (stereo not shown) [Compound 84]	134 nM
COC(COC1(C(=O)C(=O)N2C3CCCC2C(=O)N(CCCCc2ccccc2)C3)CCCC1)OC (stereo not shown) [Compound 103]	1200 nM
COc1cc(C(=O)C(=O)N2C3CCCC2C2OCC(COCc4ccccc4)N2C3=O)cc(OC)c1OC (stereo not shown) [Compound 42]	2200 nM
COC1(C(=O)C(=O)N2C3CCCC2C2=CN(C4CCCC4)C(=O)CN2C3=O)CCCC1 (stereo not shown) [Compound 116]	960 nM
COc1cc(C(=O)C(=O)N2C3C=CN(CCCCc4ccccc4)C(=O)C2CCC3)cc(OC)c1OC (stereo not shown) [Compound 162, 1-[2-Oxo-3-(4-phenyl-butyl)-3,10-diaza-bicyclo[4.3.1]dec-4-en-10-yl]-2-(3,4,5-trimethoxy-phenyl)-ethane-1,2-dione]	347 nM
COCOCC1(C(=O)C(=O)N2C3CCCC2C2=CN(C4CCCC4)C(=O)CN2C3=O)CCCC1 (stereo not shown) [Compound 152]	2800 nM

SMILES	Ki
CCOC1C2CCCC(C(=O)N1Cc1ccc(OC)cc1)N2C(=O)C(=O)c1cc(OC)c(OC)c(OC)c1 (stereo not shown) [Compound 79]	700 nM
COc1cc(C(=O)C(=O)N2C3CCCC2C(=O)N(C2CCCC2)C3=O)cc(OC)c1OC [Compound 41]	5800 nM
COCOC1(C(=O)C(=O)N2[C@@H]3CCC[C@H]2C(=O)N2CC(=O)N(CC(OC)OC)C[C@H]32)CCCC1 [Compound 119]	> 40000 nM
COCOCC(C)(C)C(=O)C(=O)N1C2CCCC1C(=O)N(CCCCc1ccccc1)C2 (stereo not shown) [Compound 63]	3100 nM
COC[C@@H]1CC[C@@H](C)[C@](O)(C(=O)C(=O)N2C3CCCC2C(=O)N(Cc2ccc4ccccc4c2)C3)C1 (stereo partly shown) [Compound 138]	1300 nM
COc1ccc(OC[C@@H]2CC[C@H](N3CC4CCCC(C3=O)N4C(=O)C(=O)c3cc(OC)c(OC)c(OC)c3)C2)cc1 (stereo partly shown) [Compound 153]	520 nM
CCC(CC)(COC(=O)COC)C(=O)C(=O)N1C2CCCC1C(=O)N(CCCCc1ccccc1)C2 (stereo not shown) [Compound 81]	1100 nM
COC(OC)C(=O)OC1(C(=O)C(=O)N2C3CCCC2C(=O)N(CCCCc2ccccc2)C3)CCCC1 (stereo not shown) [Compound 102]	690 nM
COC1(C(=O)C(=O)N2C3CCCC2C2=Cc4cc(C(F)(F)F)cc(C(F)(F)F)c4CN2C3=O)CCCC1 (stereo not shown) [Compound 146]	> 50000 nM
CCC(CC)(COC(C)=O)C(=O)C(=O)N1C2CCCC1C(=O)N(CCCCc1ccccc1)C2 (stereo not shown) [Compound 61]	790 nM
O=C1C2CCCC(CN1CCCCc1ccccc1)N2C(=O)C(=O)C1(O)CCCC1 (stereo not shown) [Compound 95]	1200 nM
CCC(CC)(COCOC)C(=O)C(=O)N1C2CCCC1C(=O)N(CCCCc1ccccc1)C2 (stereo not shown) [Compound 83]	860 nM
COc1cc(C(=O)C(=O)N2C3CCCC2C(=O)N(Cc2ccccc2)C3=O)cc(OC)c1OC [Compound 34]	206 nM
COc1cc(OC)cc(N2C=C3C4CCCC(C(=O)N3CC2=O)N4C(=O)C(=O)C2(c3ccccc3)CCCC2)c1 (stereo not shown) [Compound 156]	1500 nM
COc1cc(OC)cc(N2C=C3C4CCCC(C(=O)N3CC2=O)N4C(=O)C(=O)C2(OC)CCCC2)c1 (stereo not shown) [Compound 151]	530 nM
COC1(C(=O)C(=O)N2C3CCCC2C(=O)N(CCCCc2ccccc2)C3)CCCC1 (stereo not shown) [Compound 100]	627 nM
CCC(C)(C)C(=O)C(=O)N1C2CCCC1C(=O)N([C@H]1CCC[C@@H]1OCc1ccccc1)C2 (stereo partly shown) [Compound 77]	20500 nM
COc1cc(OC)cc(N2C=C3C4CCCC(C(=O)N3CC2=O)N4C(=O)C(=O)C2(COC(C)=O)CCCC2)c1 (stereo not shown) [Compound 143]	190 nM
CCC(C)(C)C(=O)C(=O)N1C2CCCC1[C@@H]1OCCN1C2=O (stereo partly shown) [Compound 97]	9000 nM
COc1cc(C(=O)C(=O)N2C3CCCC2C2=CN(C4CCCC4)C(=O)CN2C3=O)cc(OC)c1OC (stereo not shown) [Compound 117]	84 nM
COc1ccc2c(c1)C(OC)C1C3CCCC(C(=O)N1C2)N3C(=O)C(=O)c1cc(OC)c(OC)c(OC)c1 (stereo not shown) [Compound 74]	111 nM
